Measurements: the NIST ThermoML archive (doi:10.1016/j.fluid.2017.09.019)

Experiment: wn = mass fraction of the nth substance listed
Details: 101 kPa, Liquid; for viscosity: Concentric cylinders viscometry; for mass density: Vibrating tube method

CC(O)CN(C)C (stereo not given) [1-(dimethylamino)-2-propanol] + O
Details | mass density [kg/m3] | viscosity [mPa·s]
298.15 K, w1 = 0.2 | 988.2 | 2.407
298.15 K, w1 = 0.25 | 986.5 | 2.995
298.15 K, w1 = 0.3 | 984.4 | 3.886
298.15 K, w1 = 0.35 | 979.5 | 4.735
298.15 K, w1 = 0.4 | 976.4 | 5.67
298.15 K, w1 = 0.45 | 970.3 | 6.602
298.15 K, w1 = 0.5 | 966.2 | 7.632
298.15 K, w1 = 0.6 | 949.4 | 8.956
298.15 K, w1 = 0.7 | 930.9 | 9.925
298.15 K, w1 = 0.8 | 908.8 | 8.482
298.15 K, w1 = 0.9 | 879.8 | 5.585
298.15 K, w1 = 0.95 | 863.9 | 3.79
298.15 K, w1 = 0.96 | 858.1 | 3.282
298.15 K, w1 = 0.98 | 852.4 | 2.094
298.15 K, w1 = 1 | 845.4 | 1.332
303.15 K, w1 = 0.2 | 985.7 | 2.018
303.15 K, w1 = 0.25 | 983.5 | 2.51
303.15 K, w1 = 0.3 | 981 | 3.097
303.15 K, w1 = 0.35 | 976.1 | 3.805
303.15 K, w1 = 0.4 | 972.1 | 4.54
303.15 K, w1 = 0.45 | 966.4 | 5.187
303.15 K, w1 = 0.5 | 962.1 | 5.965
303.15 K, w1 = 0.6 | 944.6 | 6.964
303.15 K, w1 = 0.7 | 925.3 | 7.654
303.15 K, w1 = 0.8 | 903.5 | 6.762
303.15 K, w1 = 0.9 | 875 | 4.935
303.15 K, w1 = 0.95 | 858.9 | 3.199
303.15 K, w1 = 0.96 | 853.1 | 2.783
303.15 K, w1 = 0.98 | 847.3 | 1.875
303.15 K, w1 = 1 | 840.3 | 1.183
308.15 K, w1 = 0.2 | 983 | 1.738
308.15 K, w1 = 0.25 | 980.6 | 2.115
308.15 K, w1 = 0.3 | 977.8 | 2.559
308.15 K, w1 = 0.35 | 972.4 | 3.115
308.15 K, w1 = 0.4 | 968.3 | 3.647
308.15 K, w1 = 0.45 | 961.8 | 4.156
308.15 K, w1 = 0.5 | 957.7 | 4.75
308.15 K, w1 = 0.6 | 940 | 5.487
308.15 K, w1 = 0.7 | 919.8 | 6.02
308.15 K, w1 = 0.8 | 899.1 | 5.106
308.15 K, w1 = 0.9 | 870.1 | 3.396
308.15 K, w1 = 0.95 | 854.1 | 2.463
308.15 K, w1 = 0.96 | 848.4 | 2.211
308.15 K, w1 = 0.98 | 842.4 | 1.499
308.15 K, w1 = 1 | 835.5 | 1.059
313.15 K, w1 = 0.2 | 980.4 | 1.509
313.15 K, w1 = 0.25 | 977.5 | 1.803
313.15 K, w1 = 0.3 | 973.6 | 2.161
313.15 K, w1 = 0.35 | 968.4 | 2.587
313.15 K, w1 = 0.4 | 964.1 | 3.016
313.15 K, w1 = 0.45 | 957.8 | 3.375
313.15 K, w1 = 0.5 | 953.4 | 3.851
313.15 K, w1 = 0.6 | 935.4 | 4.387
313.15 K, w1 = 0.7 | 915.8 | 4.853
313.15 K, w1 = 0.8 | 894.1 | 4.197
313.15 K, w1 = 0.9 | 865.3 | 2.909
313.15 K, w1 = 0.95 | 849.3 | 2.048
313.15 K, w1 = 0.96 | 843.6 | 1.835
313.15 K, w1 = 0.98 | 837.6 | 1.322
313.15 K, w1 = 1 | 830.7 | 0.955
318.15 K, w1 = 0.2 | 977.5 | 1.325
318.15 K, w1 = 0.25 | 974.3 | 1.562
318.15 K, w1 = 0.3 | 969.8 | 1.852
318.15 K, w1 = 0.35 | 964.1 | 2.194
318.15 K, w1 = 0.4 | 959.9 | 2.523
318.15 K, w1 = 0.45 | 953.6 | 2.808
318.15 K, w1 = 0.5 | 949 | 3.178
318.15 K, w1 = 0.6 | 930.7 | 3.577
318.15 K, w1 = 0.7 | 910.9 | 3.973
318.15 K, w1 = 0.8 | 889.4 | 3.577
318.15 K, w1 = 0.9 | 860.5 | 2.629
318.15 K, w1 = 0.95 | 844.4 | 1.921
318.15 K, w1 = 0.96 | 838.7 | 1.735
318.15 K, w1 = 0.98 | 832.6 | 1.2
318.15 K, w1 = 1 | 825.8 | 0.866
323.15 K, w1 = 0.2 | 974.2 | 1.179
323.15 K, w1 = 0.25 | 971 | 1.363
323.15 K, w1 = 0.3 | 966.2 | 1.598
323.15 K, w1 = 0.35 | 960.2 | 1.868
323.15 K, w1 = 0.4 | 955.5 | 2.129
323.15 K, w1 = 0.45 | 949.4 | 2.36
323.15 K, w1 = 0.5 | 944.5 | 2.652
323.15 K, w1 = 0.6 | 925.9 | 2.974
323.15 K, w1 = 0.7 | 906.8 | 3.301
323.15 K, w1 = 0.8 | 884.6 | 2.909
323.15 K, w1 = 0.9 | 855.9 | 1.929
323.15 K, w1 = 0.95 | 839.5 | 1.357
323.15 K, w1 = 0.96 | 833.8 | 1.192
323.15 K, w1 = 0.98 | 827.7 | 1.003
323.15 K, w1 = 1 | 820.9 | 0.788
328.15 K, w1 = 0.2 | 971.2 | 1.05
328.15 K, w1 = 0.25 | 967.6 | 1.201
328.15 K, w1 = 0.3 | 962.4 | 1.402
328.15 K, w1 = 0.35 | 955.6 | 1.62
328.15 K, w1 = 0.4 | 951.3 | 1.821
328.15 K, w1 = 0.45 | 944.2 | 2.008
328.15 K, w1 = 0.5 | 940.1 | 2.239
328.15 K, w1 = 0.6 | 921.2 | 2.486
328.15 K, w1 = 0.7 | 901.7 | 2.781
328.15 K, w1 = 0.8 | 880 | 2.471
328.15 K, w1 = 0.9 | 850.6 | 1.824
328.15 K, w1 = 0.95 | 834.6 | 1.348
328.15 K, w1 = 0.96 | 828.8 | 1.208
328.15 K, w1 = 0.98 | 822.8 | 0.983
328.15 K, w1 = 1 | 816 | 0.72
333.15 K, w1 = 0.2 | 967.8 | 0.934
333.15 K, w1 = 0.25 | 964.2 | 1.067
333.15 K, w1 = 0.3 | 958.4 | 1.236
333.15 K, w1 = 0.35 | 950.9 | 1.483
333.15 K, w1 = 0.4 | 946.7 | 1.577
333.15 K, w1 = 0.45 | 939.2 | 1.724
333.15 K, w1 = 0.5 | 936.1 | 1.911
333.15 K, w1 = 0.6 | 916 | 2.106
333.15 K, w1 = 0.7 | 897.1 | 2.374
333.15 K, w1 = 0.8 | 875.3 | 2.182
333.15 K, w1 = 0.9 | 845 | 1.687
333.15 K, w1 = 0.95 | 830.9 | 1.236
333.15 K, w1 = 0.96 | 823.8 | 1.102
333.15 K, w1 = 0.98 | 817.9 | 0.853
333.15 K, w1 = 1 | 811.1 | 0.662
